Values joined by “and” are separate entries in the source; they are usually repeats but may differ in a detail not shown here. Equal entries are not always repeated.
Experiments:
[1] = test system: kidney tissues of treated or untreated rats; assay: Real-time qRT-PCR of signature amplicons, validation stage, labeled and un-labeled samples (Table 23); settings: for AI045075_DB71_seg6 normalized qRT-PCR expression (Interferon stimulated exonuclease 20 (ISG20) transcript) / H31883_DB71_seg13 normalized qRT-PCR expression (Cyclin-G1 (CCNG1) transcript) / MUSCYCG1R_DB81_seg19-20 normalized qRT-PCR expression / W41270_DB81_seg11 normalized qRT-PCR expression (tumor necrosis factor receptor superfamily, member 12a transcript) / W64472_DB81_seg2 normalized qRT-PCR expression (Interferon stimulated exonuclease 20 (ISG20) transcript) / W83813_DB81_seg27 normalized qRT-PCR expression: labeled samples, listed as ValpA
Summary of the method: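 Rat kidney RNA, labeled and un-labeled samples, run over seven plates; two amplicons per signature gene (wild-type and splice variant). Values normalized to housekeeping genes, then per plate and amplicon by geometric mean of ratios against a shuffled normalization plate (outliers removed), then scaled.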

[2] = test system: Sprague-Dawley Crl:CD(SD) rats; settings: rat, in vivo;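 further: control rats received saline intraperitoneally, and the organs examined were adrenals, brain, kidneys, liver, spleen and thymus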
Description: Control animals were treated intraperitoneal with saline.
Randomization and group allocation: prior to treatment, the animals were assigned to the experimental groups based on their body weight. Mean body weight of each group at randomization was not deviate±20% of the mean population weight. Males and females were randomized separately. For the randomization, a computer program was used.
The day before autopsy, urinalysis was performed and blood samples were taken for hematology and clinical chemistry examinations.
On the day of autopsy the animals were anaesthetized with isoflurane, blood was collected for PBMC isolation then subjected to autopsy. Tissues and organs (adrenals, brain, kidneys, liver, spleen and thymus) were weighed and subjected to gross pathological and histopathological examinations.

[3] = day1, kidney of individual male/female rats
[4] = day5, kidney of individual male/female rats
[5] = day28, kidney of individual male/female rats

CCCC(CCC)C(=O)O [Valproic acid]
AI045075_DB71_seg6 normalized qRT-PCR expression (Interferon stimulated exonuclease 20 (ISG20) transcript) [1, 3]: 1.006 and 1.436 and 2.189 and 0.983 and 1.098 and 1.522 | H31883_DB71_seg13 normalized qRT-PCR expression (Cyclin-G1 (CCNG1) transcript) [1, 3]: 1.488 and 1.506 and 0.999 and 0.721 and 1.041 | MUSCYCG1R_DB81_seg19-20 normalized qRT-PCR expression [1, 3]: 2.289 and 1.581 and 1.842 and 1.929 and 0.637 and 0.9 | W41270_DB81_seg11 normalized qRT-PCR expression (tumor necrosis factor receptor superfamily, member 12a transcript) [1, 3]: 1.134 and 0.939 and 1.405 and 1.225 and 0.547 and 1.544 | W64472_DB81_seg2 normalized qRT-PCR expression (Interferon stimulated exonuclease 20 (ISG20) transcript) [1, 3]: 1.082 and 1.123 and 1.887 and 0.995 and 1.092 and 1.596 | W83813_DB81_seg27 normalized qRT-PCR expression [1, 3]: 1.179 and 0.912 and 1.495 and 1.13 and 0.818 and 1.366 | AI045075_DB71_seg6 normalized qRT-PCR expression (Interferon stimulated exonuclease 20 (ISG20) transcript) [1, 4]: 1.017 and 1.145 and 0.997 and 0.883 and 1.052 and 0.877 | H31883_DB71_seg13 normalized qRT-PCR expression (Cyclin-G1 (CCNG1) transcript) [1, 4]: 0.846 and 0.85 and 0.975 and 0.791 and 0.694 and 1.082 | MUSCYCG1R_DB81_seg19-20 normalized qRT-PCR expression [1, 4]: 1.019 and 1.509 and 1.372 and 0.94 and 1.425 and 1.585 | W41270_DB81_seg11 normalized qRT-PCR expression (tumor necrosis factor receptor superfamily, member 12a transcript) [1, 4]: 0.631 and 1.428 and 1.002 and 0.617 and 0.997 | W64472_DB81_seg2 normalized qRT-PCR expression (Interferon stimulated exonuclease 20 (ISG20) transcript) [1, 4]: 0.92 and 1.226 and 1.169 and 0.702 and 0.812 and 0.894 | W83813_DB81_seg27 normalized qRT-PCR expression [1, 4]: 0.778 and 1.17 and 0.876 and 0.926 and 1.146 and 0.992 | AI045075_DB71_seg6 normalized qRT-PCR expression (Interferon stimulated exonuclease 20 (ISG20) transcript) [1, 5]: 0.696 and 0.906 and 0.669 and 0.822 and 0.77 and 0.719 | H31883_DB71_seg13 normalized qRT-PCR expression (Cyclin-G1 (CCNG1) transcript) [1, 5]: 0.732 and 0.774 and 0.713 and 0.872 and 0.57 and 0.979 | MUSCYCG1R_DB81_seg19-20 normalized qRT-PCR expression [1, 5]: 0.588 and 1.731 and 0.589 and 1.171 and 1.037 and 0.52 | W41270_DB81_seg11 normalized qRT-PCR expression (tumor necrosis factor receptor superfamily, member 12a transcript) [1, 5]: 0.543 and 0.95 and 0.459 and 1.044 and 0.587 and 1.011 | W64472_DB81_seg2 normalized qRT-PCR expression (Interferon stimulated exonuclease 20 (ISG20) transcript) [1, 5]: 1.085 and 0.788 and 0.965 and 1.51 and 0.478 and 0.991 | W83813_DB81_seg27 normalized qRT-PCR expression [1, 5]: 0.493 and 1.254 and 0.46 and 0.875 and 0.761 and 1.208 | Label: true label (Normal/Toxic), known renal toxic effect ([1]; rat, in vivo): Normal | Clinical pathology [2]: Slightly lower total protein and Albumin values were found in males | Histopathology / renal damage [2]: No renal damage was found | Water consumption [2]: Increase in Valproic acid treated females | Water consumption, males [2]: Sight decrease during the last week

Source: patent publication US20160177395A1, “BIOMARKERS FOR THE PREDICTION OF RENAL INJURY” (priority 2007, published 2016)
